Measured values from US4782069A, “1,4-Dihydropiridines and their use as antithrombotic drugs” (Alter, S.A., priority 1986, dated 1988).

Assays:
[1] = tested on: platelet thromboembolism in mice; assay: "In vivo" thrombosis model in the mouse (collagen + epinephrine i.v.); parameters: species or system CD-1 Charles River male mice; conditions: suspension in 0.5% carboxymethylcellulose, one to four hours after administration, i.v. 15 ug collagen and 1.8 ug epinephrine
Experimental: (B) "IN VIVO" THROMBOSIS MODEL (DiMinno, G., Silver, M. J.; J. Pharmacol. Exptl. Ther. 225:57 (1983)).
This is a suitable method for the screening of antithrombotic agents having a primary activity on platelet thormboembolism.
CD-1 Charles River male mice weighing 30 g were used. They received and i.v. injection of 15 ug collagen and 1.8 ug epinephrine in 100 ul of isotonic solution. About the 90% of the animals died or were paralysed for more than 15 minutes.
Drugs were intraperitoneally administered as a suspension in 0.5% carboxymethylcellulose and the protecting effect thereof against thrombosis was measured one to four hours after the administration.

[2] = tested on: human platelets (ADP-induced aggregation); assay: "In vitro" aggregation on human platelets (PRP), ADP-induced; assay type: cell-based; conditions: Platelet, 0.25 h, compound 10^-4 M, 37° C., 15 minutes, 2.5 uM ADP
Experimental: (§1) (Born, G.V.R., Nature 194:927 (1962)).
(§2) Citrated human blood was used, from which platelet-rich plasma (PRP) was prepared. 450 ul PRP aliquots were incubated at 37° C. with the assayed compounds at a single concentration of 10^-4 M for 15 minutes. Aggregating agents (2 ug/ml collagen and 2.5 uM ADP) were added in a 50 ul volume and the aggregation was measured as optical density decrease in the platelet suspension.

[3] = tested on: human platelets (ATP secretion); assay: Releasing reaction (ATP secretion from activated platelets), simultaneous to collagen aggregation; assay type: cell-based; conditions: Platelet, 0.25 h, human PRP, compound 10^-4 M, 37° C., 15 minutes, 2 ug/ml collagen
Experimental: as §2

[4] = tested on: human platelets (collagen-induced aggregation); assay: "In vitro" aggregation on human platelets (PRP), collagen-induced; assay type: cell-based; conditions: Platelet, 0.25 h, compound 10^-4 M, 37° C., 15 minutes, 2 ug/ml collagen
Experimental: as §1, §2

SMILES | Protection % ([1]; 30 mg/kg intraperitoneal) [%] | Protection % ([1]; 60 mg/kg intraperitoneal) [%] | inhibition at 100 µM [2] [%] | inhibition at 100 µM [3] [%] | inhibition at 100 µM [4] [%]
OCCN(CCO)c1nc(N2CCCCC2)c2nc(N(CCO)CCO)nc(N3CCCCC3)c2n1 [DIPYRIDAMOL, reference compound] | 30 | 30 | – | – | –
CCOC(=O)C1=C(C)NC(C)=C(C(=O)OCCN2C(=O)c3ccccc3S2(=O)=O)C1C (centres unmarked) [Example 1, 2-{N-(1,2-benzisothiazolyl-3(2H)one-1,1-dioxide)} ethyl 2,6-dimethyl-5-ethoxycarbonyl-4-methyl-1,4-dihydropyridine-3-carboxylate] | 50 | 70 | 12 | 80 | 84
COC(=O)C1=C(C)NC(C)=C(C(=O)OCCN2C(=O)c3ccccc3S2(=O)=O)C1C (centres unmarked) [Example 2, 2-{N-(1,2-benzisothiazolyl-3(2H)one-1,1-dioxide)} ethyl 2,6-dimethyl-4-methyl-5-methoxycarbonyl-1,4-dihydropyridine-3-carboxylate] | 0 | 42 | 20 | 43 | 48
CC1=C(C(=O)OCCNC(=O)c2ccccc2O)C(C)C(C(=O)OCCN2C(=O)c3ccccc3S2(=O)=O)=C(C)N1 (centres unmarked) [Example 3] | 62 | 62 | 15 | 18 | 24
COC(=O)C1=C(C)NC(C)=C(C(=O)OCN2C(=O)c3ccccc3S2(=O)=O)C1C (centres unmarked) [Example 4, {N-(1,2-benzisothiazolyl-3(2H)one-1,1-dioxide)} methyl 2,6-dimethyl-4-methyl-5-methoxycarbonyl-1,4-dihydropyridine-3-carboxylate] | 20 | 20 | 5 | 19 | 14
CCOC(=O)C1=C(C)NC(C)=C(C(=O)OCN2C(=O)c3ccccc3S2(=O)=O)C1C (centres unmarked) [Example 5, {N-(1,2-benzisothiazolyl-3(2H)one-1,1-dioxide)} methyl 2,6-dimethyl-5-ethoxycarbonyl-4-methyl-1,4-dihydropyridine-3-carboxylate] | 30 | 50 | 20 | 51 | 55
CCCCC1C(C(=O)OC)=C(C)NC(C)=C1C(=O)OCCN1C(=O)c2ccccc2S1(=O)=O (centres unmarked) [Example 6, 2-{N-(1,2-benzisothiazolyl-3(2H)one-1,1-dioxide)} ethyl 4-n-butyl-2,6-dimethyl-5-methoxycarbonyl-1,4-dihydropyridine-3-carboxylate] | 12 | 34 | 8 | 29 | 15
